The text below walks through data of US8455474B2, “Method for treating tuberculosis” (Mackay Memorial Hospital, priority 2011, dated 2013).

In one assay the test system is monocytes. The experiment in a line: Cholesterol uptake of monocytes (nile red staining, flow cytometry). The conditions noted are these: cholesterol supplement 10 μg/ml. Type of assay: cell-based. As to the method:
(§1) Peripheral blood mononuclear cells were isolated from whole blood by means of Ficoll-Paque gradient centrifugation. Monocytes were incubated with CD14 microbeads, after which the CD14-positive cells were separated out by a magnet. These cells were seeded in U-bottom 96-well plates at a density of 2×10^5 cells in a volume of 200 μl of PRMI-1640 medium with 10% FCS and cultured for 1 hour in the presence or absence of EZETIMIBE (resolved in alcohol). Next, 5×10^5 M. tuberculosis bacteria were added to each well, followed by incubation for 24 hours. Cell viability was tested by using trypan blue staining. In the post-treatment experiment, monocytes were infected with M. tuberculosis bacteria for 1 hour and then added with EZETIMIBE for another 24 hours. In the cholesterol supplement experiment, water soluble cholesterol (Sigma) was resolved in sterile deionized water and added into the culture medium with or without EZETIMIBE.
A stock solution of nile red (1 mg/ml) in acetone was prepared and stored at 4° C. and protected from light. The nile red solution was added to the cell preparation (final concentration: 1 μg/ml) for 10 minutes and excess dye was washed away with PBS. Nile red fluorescence was examined at two spectral settings, yellow-gold fluorescence (FL1 channel, excitation, 488 nm; emission, 530±30 nm) for cytoplasmic neutral lipids and red fluorescence (FL2 channel, excitation, 488 nm; emission, 585±21 nm) for polar lipids, consist of phospholipids, other amphipathic lipids, and strongly hydrophobic proteins of cell membranes as reported. Stained cells were evaluated by FACS Calibur flow cytometer (BD Bioscience). Analysis was performed using CellQuest software (BD Bioscience).
As shown in FIGS. 5A-B, monocytes were infected with M. tuberculosis bacteria followed by treatment with EZETIMIBE for 24 hours. Nile red staining was used to assess the intracellular lipid droplets by flow cytometry. Nile red fluorescence was examined at two spectral settings, yellow-gold fluorescence (FL1 channel, excitation, 488 nm; emission, 530±30 nm) for cytoplasmic neutral lipids, included triglyceride, cholesterol, cholesterol esters and free fatty acid, and red fluorescence (FL2 channel, excitation, 488 nm; emission, 585±21 nm) for polar lipids. Significant increase fluorescence intensity of FL1 channel not FL2 channel was observed following cholesterol supplement (10 μg/ml) in monocytes culture without infection, and EZETIMIBE (10 μg/ml and 20 μg/ml) can inhibit the uptake of cholesterol by reducing the relative fluorescence of FL1 channel from 1.5 to 1.2 and 1.3, respectively.
For orientation: Flow cytometry measures light scatter and fluorescence of single cells or particles in a stream.

The test system of assay [1] is M. tuberculosis internalization into monocytes. The experiment in a line: Internalization of M. tuberculosis by monocytes (flow cytometry). Type of assay: cell-based, Mycobacterium tuberculosis. As to the method: as §1
Infected monocytes described above receiving either EZETIMIBE or control were washed with PBS to remove unbound bacteria and fixed with 4% formalin for 24 hours at 4° C. Then cells were permeabilized by using permeabilization buffer and stained with fluorescein isothiocyanate-conjugated anti-M. tuberculosis antibody for 1 hour at 4° C. The fluorescence intensity of intracellular M. tuberculosis was than analyzed by flow cytometry. Stained cells were evaluated by FACS Calibur flow cytometer (BD Bioscience). Analysis was performed using CellQuest software (BD Bioscience).
As shown in FIGS. 2A-2D, the experiments were performed to assess whether the treatment of EZETIMIBE affected M. tuberculosis internalization into monocytes, and the monocytes were pretreated with EZETIMIBE for 24 hours or 48 hours.

A further assay concerns the target T1, CD13 (Homo sapiens, UniProt P15144).
T1 construct: whether the treatment of EZETIMIBE affected CD13 expression on monocytes; endogenous in cells; host or cells: monocytes
The experiment in a line: CD13 expression on monocytes (antiCD13 antibody staining). Format: cell-based. The settings on record: monocytes pretreated 24 or 48 hours, clones WM15 and WM47.

Assay [2] relates to Mycobacterium tuberculosis. The experiment in a line: Killing kinetics in vitro (7H9 broth OD600, CFU on 7H11 agar). Type of assay: cell-based. As to the method:
Mycobacterium tuberculosis strains were obtained from the culture collection of the Mycobacteriology Laboratory, Mackay Memorial Hospital, Taipei, Taiwan. The organisms were cultured on Lowenstein-Jensen medium slant at 37° C. in a 10% CO2 humidified atmosphere. In mid-log phase, the colonies were harvested and resuspended with PBS. The turbidity of suspension was adjusted to a McFarland 0.5 standard, containing approximately 1×10^8 bacteria/ml.
Strains were grown in 7H9 medium and the turbidity of suspension was adjusted to a McFarland 0.5 standard and used as inocula after ten-fold dilution in 7H9 medium with or without various concentrations of EZETIMIBE. The kinetics of bactericidal effect of EZETIMIBE was estimated by measuring the optical density at 600 nm at the indicated time points, followed by plating for colony formation unit (CFU) enumeration on 7H11 agar plates.

Assay [3] has as its system intracellular M. tuberculosis in monocytes. Description: Intracellular survival of M. tuberculosis in monocytes with cholesterol supplement (CFU assay). Format: cell-based, Mycobacterium tuberculosis. The settings on record: post-treatment 24 hours.
Assay [4] shares this test system. Description: Intracellular survival of M. tuberculosis in monocytes (CFU assay). Format: cell-based, Mycobacterium tuberculosis.

T1 sequence (P15144 whole entry): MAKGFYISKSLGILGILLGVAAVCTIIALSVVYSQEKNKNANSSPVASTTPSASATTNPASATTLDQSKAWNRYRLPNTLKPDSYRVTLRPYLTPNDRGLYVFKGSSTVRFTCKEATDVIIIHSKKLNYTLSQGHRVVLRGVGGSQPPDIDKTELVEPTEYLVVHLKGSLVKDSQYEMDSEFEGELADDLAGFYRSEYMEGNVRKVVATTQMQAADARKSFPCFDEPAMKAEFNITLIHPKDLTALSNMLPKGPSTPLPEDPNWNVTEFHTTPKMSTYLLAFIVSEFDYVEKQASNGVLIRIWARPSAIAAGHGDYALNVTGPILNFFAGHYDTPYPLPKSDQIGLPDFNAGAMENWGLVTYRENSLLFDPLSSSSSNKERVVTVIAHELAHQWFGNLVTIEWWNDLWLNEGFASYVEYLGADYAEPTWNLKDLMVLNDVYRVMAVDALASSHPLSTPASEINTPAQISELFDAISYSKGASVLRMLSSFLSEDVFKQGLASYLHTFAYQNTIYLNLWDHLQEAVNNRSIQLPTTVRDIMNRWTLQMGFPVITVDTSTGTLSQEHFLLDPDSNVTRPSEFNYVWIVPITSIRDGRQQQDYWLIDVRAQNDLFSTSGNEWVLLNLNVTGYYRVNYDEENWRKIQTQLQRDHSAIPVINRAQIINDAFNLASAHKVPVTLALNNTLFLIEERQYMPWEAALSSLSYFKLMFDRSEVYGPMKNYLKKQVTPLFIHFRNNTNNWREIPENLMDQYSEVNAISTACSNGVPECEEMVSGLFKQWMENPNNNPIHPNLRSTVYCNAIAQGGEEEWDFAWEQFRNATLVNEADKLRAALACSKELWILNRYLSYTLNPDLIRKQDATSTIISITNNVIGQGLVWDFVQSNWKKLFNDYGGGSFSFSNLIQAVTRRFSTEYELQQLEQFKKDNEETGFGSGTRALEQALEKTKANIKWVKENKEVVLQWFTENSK

Take `O=C1[C@H](CC[C@H](O)c2ccc(F)cc2)[C@@H](c2ccc(O)cc2)N1c1ccc(F)cc1` [EZETIMIBE, (3R,4S)-1-(4-fluorophenyl)-3-[(3S)-3-(4-fluorophenyl)-3-hydroxypropyl]-4-(4-hydroxyphenyl)zetidin-2-one]: the “relative fluorescence of FL1 channel (nile red, neutral lipids)” value was determined as 0.9 with monocytes (M. tuberculosis infected monocytes, 24 hours, EZETIMIBE 10 μg/ml, without drug 1.4); 1.0 with monocytes (M. tuberculosis infected monocytes, 24 hours, EZETIMIBE 20 μg/ml, without drug 1.4); 1.2 with monocytes (monocytes without infection, EZETIMIBE 10 μg/ml, without drug 1.5); 1.3 in the assay on monocytes (monocytes without infection, EZETIMIBE 20 μg/ml, without drug 1.5). Further, the “entry reduction of M. tuberculosis into monocytes” value in assay [1] (post-treatment of monocytes, 24 hours) was “up to 0.65%”; in assay [1] (post-treatment of monocytes, 48 hours), at most 26.02%; in assay [1] (pre-treatment of monocytes, 48 hours), “up to 18.28%”. The “CD13 expression on monocytes” value at CD13 was “down-regulation of CD13 expression”. The “colony-forming units (CFU) of Mycobacterium tuberculosis on 7H11 agar plate” value in assay [2] (15 and 30 μg/ml for 72 hours, read at 3rd week (FIG. 1C)) was “significantly reduced”. Besides, in assay [2] (FIG. 1B), the “M. tuberculosis survival in suspension with increasing amount of bacteria” value is “inhibition on M. tuberculosis survival was found”. For the same compound, the “growth of Mycobacterium tuberculosis in 7H9 broth” value in assay [2] (increasing concentrations, 2nd and 3rd week (FIG. 1A)) was “inhibition effect on growth”. Further, the CFU counts was 7692 per 10,000 cells in assay [3] (EZETIMIBE 10 μg/ml, cholesterol supplement 10 μg/ml, without drug 10600); 12545 per 10,000 cells in assay [3] (EZETIMIBE 10 μg/ml, cholesterol supplement 20 μg/ml); 4800 per 10,000 cells in assay [3] (EZETIMIBE 20 μg/ml, cholesterol supplement 10 μg/ml, without drug 10600); 10333 per 10,000 cells in assay [3] (EZETIMIBE 20 μg/ml, cholesterol supplement 20 μg/ml); 4090 per 10,000 cells in assay [4] (post-treatment: infection 1 hour then 10 ng/ml for 24 hours, without drug 8320); 2858 per 10,000 cells in assay [4] (post-treatment: infection 1 hour then 20 ng/ml for 24 hours, without drug 8320). Also, the CFU counts in assay [4] (pre-treatment 1 hour then infection 24 hours, 10 ng/ml, without drug 7358) was 5880 per 10,000 cells; in assay [4] (pre-treatment 1 hour then infection 24 hours, 20 ng/ml, without drug 7358), 4000 per 10,000 cells.
